Key:
[1] = tested on: Promega Mid-Range Molecular Weight Markers; test: Enhancement of staining of proteins in SDS-PAGE gels in 5% acetic acid
Experimental: The gels described above were placed in 5% acetic acid following the termination of the electrophoretic separation. Within one to two minutes the gel developed a light green background but the protein bands dramatically darkened to a green color. […] Again, the color of the background darkened to a greater degree when greater concentrations of dye were used.
The gels above (from Example 7) were placed in 5% acetic acid following termination of the electrophoretic separation. Within 1-2 minutes, all the gels turned light green and the color of the stained bands intensified such that all proteins were visible--even in the lane containing 0.25 μg protein/band.
The gels above (Example 9) were placed in 5% acetic acid following termination of the electrophoretic separation. Within 1-2 minutes, all the gels turned light green and the color of the stained bands intensified such that all proteins were visible--even in the lanes containing 0.25 μg protein/band.

[2] = tested on: Promega Mid Range Molecular Weight Markers; test: Rapid enhancement of the staining of proteins with low residual color in the gel
Experimental: In order to develop such a method, several 10% SDS-PAGE gels made as described in Example 5 were made and loaded with samples made as described therein with the following changes: the sample loading size was reduced to 5 μl; and the solutions were made to contain 1.0, 0.50, 0.25, and 0.125 μg of each protein band of Promega Mid Range Molecular Weight Markers in 5 μl of the sample. Each gel was loaded such that duplicate panels of samples containing the various concentrations of protein were present in 4 consecutive lanes. The gels were run as described above and the gel was cut between the duplicate sample panels. A gel segment containing one panel was placed in each of the following solutions: 30 ml of 2% glacial acetic acid (A); 30 ml of 2% glacial acetic acid in 10% methanol (B); 2% glacial acetic acid in 20% methanol (C); 2% glacial acetic acid in 30% methanol (D); 30 ml of water (E); 30 ml of 10% methanol (F); 30 ml of 20% methanol (G); and 30 ml of 30% methanol (H). The solutions were incubated with the gel segments for 10 minutes at room temperature and gently rotated at 40 rpm to prevent settling of the gel segments in the containers. […]
Protocols using other dyes that have been developed for the sensitive detection of protein sometimes employ the incubation of the gel in solutions containing the stain followed by incubation of the gel in solutions lacking the stain. In order to determine if such a protocol could be used to allow even lower levels of protein to be detected using Promega Green 1, the following study was performed. […]

Structure (SMILES): CCCCCCCC(=O)N(c1ccc(OCC)cc1)c1ccc(C(=C2C=CC(=[N+](CC)Cc3cccc(S(=O)(=O)[O-])c3)C=C2)c2ccc(N(CC)Cc3cccc(S(=O)(=O)O)c3)cc2)cc1 [Promega Green 1]
- visibility of protein bands after enhancement ([1]; 5% acetic acid, one to two minutes): All of the protein bands in all the lanes having sample were now visible
- staining after overnight incubation ([1]; 5% acetic acid, overnight): appeared to darken slightly
- overall performance ([1]; Examples 5-10): most desirable properties of the compounds tested
- amount of protein in a band that can be detected ([2]; methanol/acetic acid solutions A-H, 10 min then 60 min): less than 125 ng
- lowest protein per band visible ([2]; post-incubation with dye 1:5000 and 1:10,000 in 30-50% methanol, then without dye): 62.5 ng
- background staining ([2]; solution set H (30% methanol, then 2% acetic acid in 30% methanol)): very little background staining remaining

— patent US5705649A, “Protein staining compositions and methods” (Promega Corporation, priority 1995, dated 1998)
